Laboratory results published in publication PMC8329300, “X-ray crystallography reveals molecular recognition mechanism for sugar binding in a melibiose transporter MelB” (Communications Biology, 2021).

Molecular target: T1, D59C MelBSt (Salmonella typhimurium, UniProt P30878, D59C)
T1 construct: Cys scanning mutagenesis for the full-length MelBSt; His10 (C); made in house; host or cells: E. coli DW2
Assay: Trp→dansyl galactoside (D2G) FRET time trace and IC50 of D2G displacement (D59C)
Type: binding
Settings: IC50 of galactoside displacement on bound D2G, α-NPG, 10 μM D2G
Experimental: Fig. 1 Functional characterizations. a [^3H] Melibiose transport time course with intact cells. […] Inset, melibiose fermentation assay. Transformants with DW2 strain were plated on MacConkey agar plates containing 30 mM melibiose as the sole carbohydrate source and pH sensor neutral red, and incubated at 37 °C for 16–18 h before imaging. Number of tests = 3, from different batch of cells or duplicate measurements from same batch of sample. b Ligand binding by Trp→dansyl galactoside (D^2G) FRET assay. Purified proteins at 1 μM concentration in 20 mM Tris-HCl, pH 7.5, 100 mM CholCl, 10% glycerol, and 0.03% UDM were subjected to steady-state fluorescence measurements as described in Methods. On the time-trace, 1.8 μL of 1 mM D^2G at 10 μM was added into 180 μL of protein solutions at 1-min point, followed by supplying 10 μL of 5 mM DDMB or 5 mM α-NPG to displace the bound D^2G. For testing Na^+ or Li^+ binding, they are added into the solution before displacement with the second sugar. The structure of DDMB or α-NPG is shown in a chair form, and the carbon positions are labeled. Glycosidic bonds are indicated by arrows. Both are α-galactosides containing a substituent at the anomeric carbon-1. The data were from duplicate measurements.
Steady-state fluorescence measurements were performed with an AMINCO-Bowman series 2 spectrometer with purified MelBSt at 1 μM in 20 mM Tris-HCl, pH 7.5, 100 mM CholCl, 10% glycerol, 0.03% UDM. Using an excitation wavelength at 290 nm, the emission intensity was recorded at 490 nm. On a time-trace, D^2G, NaCl or LiCl, then DDMB or α-NPG, were sequentially added into the protein solutions at a 1 min-interval. […] An identical volume of water was used for the control. The decrease in intensity after each addition of DDMB or α-NPG was corrected by the dilution effect and plotted as a function of the accumulated α-NPG concentrations or estimated DDMB concentrations. The 50% inhibitory concentration (IC50) was determined by fitting a hyperbolic function to the data (OriginPro 2020b). The final concentration of each detergent is estimated to be 234 μM, which is less than their CMC value for (DDMB, 295 μM).
Supplementary Figure 2. Determination of DDMB binding affinity to MelBSt. (a) Titration with DDMB or a-NPG. MelBSt in 20 mM Tris-HCl, pH 7.5, 100 mM CholCl, 10% glycerol, 0.03% UDM without (1) or with 100 mM NaCl (2) were added with D2G at 10 μM at 1-min time point as indicated by triangle symbols on the Trp®dansyl FRET time trace. Starting at the 2-min of time point, DDMB or a-NPG solution was supplemented consecutively at a 1-min interval into MelBSt solution till no change in fluorescence intensity reached as indicated in star symbols. DDM and UDM were used as negative controls. 1% DDM or UDM was titrated into the mixture, The […]
At 2-min time point, additions of galactosides were colored in pink, a-NPG in yellow, UDM in blue, DDM in light blue, water in gray traces, respectively. (b) IC50 determination. The intensity decrease at each titration were corrected by the dilution effect, and plotted as a function of the accumulated DDMB or α-NPG concentration. The 50% inhibitory concentration (IC50) was determined by fitting the data to a hyperbolic function (OriginPro 2020b). Results are presented in […]
(1 picture or pasted object on this page, not shown here)

T1 sequence (P30878 whole entry D59C): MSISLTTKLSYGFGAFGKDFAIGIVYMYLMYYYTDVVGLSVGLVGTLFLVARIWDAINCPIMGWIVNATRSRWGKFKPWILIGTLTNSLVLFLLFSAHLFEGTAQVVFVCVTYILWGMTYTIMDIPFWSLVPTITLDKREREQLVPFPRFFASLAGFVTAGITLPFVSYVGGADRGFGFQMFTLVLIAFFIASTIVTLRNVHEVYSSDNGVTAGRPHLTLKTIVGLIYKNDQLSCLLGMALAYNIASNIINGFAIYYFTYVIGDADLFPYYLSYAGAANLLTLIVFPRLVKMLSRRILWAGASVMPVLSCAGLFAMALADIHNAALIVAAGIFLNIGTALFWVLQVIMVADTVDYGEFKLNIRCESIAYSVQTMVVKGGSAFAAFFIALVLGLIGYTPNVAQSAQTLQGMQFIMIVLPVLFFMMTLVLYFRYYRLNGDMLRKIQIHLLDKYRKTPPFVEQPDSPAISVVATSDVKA

Compound `O=[N+]([O-])c1ccc(OC2OC(CO)C(O)C(O)C2O)cc1` [α-NPG, 4-nitrophenyl-α-D-galactopyranoside] has an IC50 (Apo) of 22.1 ± 5.75 µM and an IC50 (Na+ (100 mM)) of 21.3 ± 1.67 µM.
